The record followed here is patent publication US20080200454A1, “CARBON-LINKED TETRAHYDRO-PYRAZOLO-PYRIDINE MODULATORS OF CATHEPSIN S” (priority 2007, published 2008).

The term IC50 denotes the midpoint of a concentration-inhibition curve.

One assay deals with Recombinant human cathepsin S (CatS) (Homo sapiens, UniProt P25774). Description: Recombinant human cathepsin S (CatS) inhibition assay, fluorogenic substrate Z-Valine-Valine-Arginine-AMC.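 Also: Baculovirus-expressed CatS in pH 5.0 sodium acetate buffer with DTT and NaCl, fluorescence read each minute over 20 min, inhibition derived from rate slope.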
Chain of Recombinant human cathepsin S (CatS) (P25774 115-331): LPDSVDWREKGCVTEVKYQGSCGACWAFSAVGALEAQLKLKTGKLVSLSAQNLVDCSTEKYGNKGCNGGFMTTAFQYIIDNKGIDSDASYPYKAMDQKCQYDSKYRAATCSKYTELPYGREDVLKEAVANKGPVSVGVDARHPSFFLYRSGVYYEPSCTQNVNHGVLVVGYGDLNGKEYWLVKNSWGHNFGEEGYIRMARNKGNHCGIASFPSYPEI
Details: not given
For `CS(=O)(=O)N1CCc2c(c(-c3ccc(Cl)c(C#Cc4ccc5c(c4)CN[C@H](C(=O)N4CCCCC4)C5)c3)nn2CCCN2CCOCC2)C1` [Example 486, (3S)-7-({2-Chloro-5-[5-(methylsulfonyl)-1-(3-morpholin-4-ylpropyl)-4,5,6,7-tetrahydro-1H-pyrazolo[4,3-c]pyridin-3-yl]phenyl}ethynyl)-3-(piperidin-1-ylcarbonyl)-1,2,3,4-tetrahydroisoquinoline], the IC50 came to 30 nM. On the same count and under the same terms, the same measure for `CC(C)(C)OC(=O)N1C[C@@H]2C[C@H]1CN2CCCn1nc(-c2ccc(Cl)c(C#Cc3ccc(CNCc4ccc(Cl)cc4)cc3)c2)c2c1CCN(S(C)(=O)=O)C2` [Example 491, 1,1-Dimethylethyl (1S,4S)-5-{3-[3-(4-chloro-3-{[4-({[(4-chlorophenyl)methyl]amino}methyl)phenyl]ethynyl}phenyl)-5-(methylsulfonyl)-4,5,6,7-tetrahydro-1H-pyrazolo[4,3-c]pyridin-1-yl]propyl}-2,5-diazabicyclo[2.2.1]heptane-2-carboxylate]: 120 nM. Turning to `CC(C)(C)OC(=O)N1C[C@H]2C[C@@H]1CN2CCCn1nc(-c2ccc(Cl)c(C#Cc3ccc(CNCc4ccc(Cl)cc4)cc3)c2)c2c1CCN(S(C)(=O)=O)C2` [Example 492, 1,1-Dimethylethyl (1R,4R)-5-{3-[3-(4-chloro-3-{[4-({[(4-chlorophenyl)methyl]amino}methyl)phenyl]ethynyl}phenyl)-5-(methylsulfonyl)-4,5,6,7-tetrahydro-1H-pyrazolo[4,3-c]pyridin-1-yl]propyl}-2,5-diazabicyclo[2.2.1]heptane-2-carboxylate], the IC50 was determined as 220 nM. In the case of `NC(=O)C(=O)N1CCc2c(c(-c3ccc(Cl)c(C#Cc4ccc(CN[C@@H]5CCCc6ccccc65)cc4)c3)nn2CCCN2CCOCC2)C1` [Example 496, 2-[3-{4-Chloro-3-[(4-{[(1R)-1,2,3,4-tetrahydronaphthalen-1-ylamino]methyl}phenyl)ethynyl]phenyl}-1-(3-morpholin-4-ylpropyl)-1,4,6,7-tetrahydro-5H-pyrazolo[4,3-c]pyridin-5-yl]-2-oxoacetamide], the IC50 was 70 nM. In the case of `O=C(N1CCOCC1)N1CCc2c(c(-c3ccc(Cl)c(C#Cc4ccc(CNCc5ccc(Cl)cc5)cc4)c3)nn2CCCN2CCOCC2)C1` [Example 497, 1-[4-({2-Chloro-5-[5-(morpholin-4-ylcarbonyl)-1-(3-morpholin-4-ylpropyl)-4,5,6,7-tetrahydro-1H-pyrazolo[4,3-c]pyridin-3-yl]phenyl}ethynyl)phenyl]-N-[(4-chlorophenyl)methyl]methanamine], the IC50 was 1630 nM. Still for that read-out and setting: for `CN(C)C(=O)N1CCc2c(c(-c3ccc(Cl)c(C#Cc4ccc(CNCc5ccc(Cl)cc5)cc4)c3)nn2CCCN2CCOCC2)C1` [Example 498, 3-(4-Chloro-3-{[4-({[(4-chlorophenyl)methyl]amino}methyl)phenyl]ethynyl}phenyl)-N,N-dimethyl-1-(3-morpholin-4-ylpropyl)-1,4,6,7-tetrahydro-5H-pyrazolo[4,3-c]pyridine-5-carboxamide] the value was 4560 nM; for `CC(=O)NCC(=O)N1CCc2c(c(-c3ccc(Cl)c(C#Cc4ccc(CNCc5ccc(Cl)cc5)cc4)c3)nn2CCCN2CCOCC2)C1` [Example 499, N-{2-[3-(4-Chloro-3-{[4-({[(4-chlorophenyl)methyl]amino}methyl)phenyl]ethynyl}phenyl)-1-(3-morpholin-4-ylpropyl)-1,4,6,7-tetrahydro-5H-pyrazolo[4,3-c]pyridin-5-yl]-2-oxoethyl}acetamide], 160 nM.

The same assay, now with this note: CatS IC50.
Consider `NC(=O)N1CCc2c(c(-c3ccc(Cl)c(C#Cc4ccc(CNCc5cccc(Cl)c5)cc4)c3)nn2CCCN2CCSCC2)C1` [Example 487, 3-(4-Chloro-3-{[4-({[(3-chlorophenyl)methyl]amino}methyl)phenyl]ethynyl}phenyl)-1-(3-thiomorpholin-4-ylpropyl)-1,4,6,7-tetrahydro-5H-pyrazolo[4,3-c]pyridine-5-carboxamide], for which the half-inhibitory concentration (IC50) amounted to 60 nM. Still for that read-out and setting: for `NC(=O)N1CCc2c(c(-c3ccc(Cl)c(C#Cc4ccc(CNCc5ccccc5Cl)cc4)c3)nn2CCCN2CCSCC2)C1` [Example 488, 3-(4-Chloro-3-{[4-({[(2-chlorophenyl)methyl]amino}methyl)phenyl]ethynyl}phenyl)-1-(3-thiomorpholin-4-ylpropyl)-1,4,6,7-tetrahydro-5H-pyrazolo[4,3-c]pyridine-5-carboxamide] the value was 140 nM; for `CS(=O)(=O)N1CCc2c(c(-c3ccc(Cl)c(C#Cc4ccc5c(c4)CNCCC5)c3)nn2CCCN2CCOCC2)C1` [Example 489, 8-({2-Chloro-5-[5-(methylsulfonyl)-1-(3-morpholin-4-ylpropyl)-4,5,6,7-tetrahydro-1H-pyrazolo[4,3-c]pyridin-3-yl]phenyl}ethynyl)-2,3,4,5-tetrahydro-1H-2-benzazepine], 480 nM. In the case of `CN(Cc1ccc(Cl)cc1)Cc1ccc(C#Cc2cc(-c3nn(CCCN4CCN(c5ccccc5)CC4)c4c3CN(S(C)(=O)=O)CC4)ccc2Cl)cc1` [Example 490, 1-{4-[(2-Chloro-5-{5-(methylsulfonyl)-1-[3-(4-phenylpiperazin-1-yl)propyl]-4,5,6,7-tetrahydro-1H-pyrazolo[4,3-c]pyridin-3-yl}phenyl)ethynyl]phenyl}-N-[(4-chlorophenyl)methyl]-N-methylmethanamine], the IC50 was found to be 70 nM.

Regarding `CS(=O)(=O)N1CCc2c(c(-c3ccc(Cl)c(C#Cc4ccc(CNCc5ccc(Cl)cc5)cc4)c3)nn2CCCN2C[C@@H]3C[C@H]2CN3)C1` [Example 493, 1-[4-({2-Chloro-5-[1-{3-[(1S,4S)-2,5-diazabicyclo[2.2.1]hept-2-yl]propyl}-5-(methylsulfonyl)-4,5,6,7-tetrahydro-1H-pyrazolo[4,3-c]pyridin-3-yl]phenyl}ethynyl)phenyl]-N-[(4-chlorophenyl)methyl]methanamine], the IC50 worked out at 300 nM. Take `CS(=O)(=O)N1CCc2c(c(-c3ccc(Cl)c(C#Cc4ccc(CNCc5ccc(Cl)cc5)cc4)c3)nn2CCCN2C[C@H]3C[C@@H]2CN3)C1` [Example 494, 1-[4-({2-Chloro-5-[1-{3-[(1R,4R)-2,5-diazabicyclo[2.2.1]hept-2-yl]propyl}-5-(methylsulfonyl)-4,5,6,7-tetrahydro-1H-pyrazolo[4,3-c]pyridin-3-yl]phenyl}ethynyl)phenyl]-N-[(4-chlorophenyl)methyl]methanamine]: the IC50 is 310 nM.

For the compound `CN(Cc1ccc(Cl)cc1)Cc1ccc(C#Cc2cc(-c3nn(CCCN4CCOCC4)c4c3CN(S(C)(=O)=O)CC4)ccc2Cl)cc1` [Example 495, 1-[4-({2-Chloro-5-[5-(methylsulfonyl)-1-(3-morpholin-4-ylpropyl)-4,5,6,7-tetrahydro-1H-pyrazolo[4,3-c]pyridin-3-yl]phenyl}ethynyl)phenyl]-N-[(4-chlorophenyl)methyl]-N-methylmethanamine], the IC50 turned out to be 770 nM.

On to `C[C@H]1COCCN1CCCn1nc(-c2ccc(Cl)c(C#Cc3ccc(CN(C)Cc4ccc(Cl)cc4)cc3)c2)c2c1CCN(S(C)(=O)=O)C2` [Example 500, 1-[4-({2-Chloro-5-[1-{3-[(3S)-3-methylmorpholin-4-yl]propyl}-5-(methylsulfonyl)-4,5,6,7-tetrahydro-1H-pyrazolo[4,3-c]pyridin-3-yl]phenyl}ethynyl)phenyl]-N-[(4-chlorophenyl)methyl]-N-methylmethanamine], for which the IC50 came to 580 nM. Still for that read-out and setting: the same measure for `C[C@H]1COCCN1CCCn1nc(-c2ccc(Cl)c(C#Cc3ccc4c(c3)CN(CC(F)(F)F)CC4)c2)c2c1CCN(S(C)(=O)=O)C2` [Example 501, 7-({2-Chloro-5-[1-{3-[(3S)-3-methylmorpholin-4-yl]propyl}-5-(methylsulfonyl)-4,5,6,7-tetrahydro-1H-pyrazolo[4,3-c]pyridin-3-yl]phenyl}ethynyl)-2-(2,2,2-trifluoroethyl)-1,2,3,4-tetrahydroisoquinoline]: 750 nM; for `CN(Cc1ccc(Cl)cc1)Cc1ccc(C#Cc2cc(-c3nn(CCCN4CCN(c5ccccn5)CC4)c4c3CN(S(C)(=O)=O)CC4)ccc2Cl)cc1` [Example 502, 1-{4-[(2-Chloro-5-{5-(methylsulfonyl)-1-[3-(4-pyridin-2-ylpiperazin-1-yl)propyl]-4,5,6,7-tetrahydro-1H-pyrazolo[4,3-c]pyridin-3-yl}phenyl)ethynyl]phenyl}-N-[(4-chlorophenyl)methyl]-N-methylmethanamine]: 110 nM.

On to `CN(Cc1ccc(Cl)cc1)Cc1ccc(C#Cc2cc(-c3nn(CCCN4CCSCC4)c4c3CN(S(C)(=O)=O)CC4)ccc2Cl)cc1` [Example 503, 1-[4-({2-Chloro-5-[5-(methylsulfonyl)-1-(3-thiomorpholin-4-ylpropyl)-4,5,6,7-tetrahydro-1H-pyrazolo[4,3-c]pyridin-3-yl]phenyl}ethynyl)phenyl]-N-[(4-chlorophenyl)methyl]-N-methylmethanamine], for which the IC50 is 660 nM.

`CS(=O)(=O)N1CCc2c(c(-c3ccc(Cl)c(C#Cc4cccc(CNCCc5ccccc5)c4)c3)nn2CCCN2CCOCC2)C1` [Example 504, N-{[3-({2-Chloro-5-[5-(methylsulfonyl)-1-(3-morpholin-4-ylpropyl)-4,5,6,7-tetrahydro-1H-pyrazolo[4,3-c]pyridin-3-yl]phenyl}ethynyl)phenyl]methyl}-2-phenylethanamine]: the IC50 was determined as 280 nM. Still for that read-out and setting: the same measure for `CS(=O)(=O)N1CCc2c(c(-c3ccc(Cl)c(C#Cc4ccc5c(c4)CCN(CC4CC4)C5)c3)nn2CCCN2CCOCC2)C1` [Example 505, 6-({2-Chloro-5-[5-(methylsulfonyl)-1-(3-morpholin-4-ylpropyl)-4,5,6,7-tetrahydro-1H-pyrazolo[4,3-c]pyridin-3-yl]phenyl}ethynyl)-2-(cyclopropylmethyl)-1,2,3,4-tetrahydroisoquinoline]: 630 nM. Still for that read-out and setting: for `CS(=O)(=O)N1CCc2c(c(-c3ccc(Cl)c(C#Cc4cccc(CNCCO)c4)c3)nn2CCCN2CCOCC2)C1` [Example 506, 2-({[3-({2-Chloro-5-[5-(methylsulfonyl)-1-(3-morpholin-4-ylpropyl)-4,5,6,7-tetrahydro-1H-pyrazolo[4,3-c]pyridin-3-yl]phenyl}ethynyl)phenyl]methyl}amino)ethanol] the value was 520 nM.
